Laboratory results reported in PMC7748245, “Identification and Optimization of a Series of 8-Hydroxy Naphthyridines with Potent In Vitro Antileishmanial Activity: Initial SAR and Assessment of In Vivo Activity” (Journal of Medicinal Chemistry, 2020).
Values after ≈ are worked out from the molar mass of the structure shown. Read-outs that look alike come from different tables or passages of the source.

How the values were obtained:
L. donovani amastigotes = assay: Intramacrophage L. donovani assay (Ld InMac); format: cell-based, Leishmania donovani; conditions: for IC50 / EC50: Leishmania donovani; for IC50: read-out: LdInMac pIC50 (converted); for Ld InMac (pEC50) / EC50: L. donovani amastigotes in THP-1 cells, 96 h compound exposure; for loss in potency compared to 1: Ld InMac; for EC50: THP-1, 96 h, read-out: Ld InMac (pEC50) (converted)
Protocol: (§1) This assay was conducted as previously described,[8] except for compound exposure time, which was 96 h instead of 72 h.

[1] = Mouse liver microsomal intrinsic clearance; format: in vitro ADME; conditions: for Cli (mouse liver microsomal intrinsic clearance): mouse liver microsomes; for Cli (mouse, ml/min/g): supplement sheet
Protocol: (§2) These assays were conducted as previously described.[23]

THP-1 cells = assay: THP-1 host cell toxicity readout of the intramacrophage assay; format: cell-based, human; conditions: for IC50: Homo sapiens; for THP-1 (pEC50): human THP-1 host cells
Protocol: as §1

[2] = Kinetic aqueous solubility; format: physicochemical; conditions: kinetic; read-out: Aq Solubility (kinetic aqueous solubility)
Protocol: as §2

Chrom Log D pH7.4 = format: physicochemical; conditions: for ChromLogDpH7.4: pH 7.4; for ChromLogD: supplement sheet
Protocol: This assay was conducted as previously described.[11]

[3] = THP-1, supplement sheet, read-out: THP1 pIC50 (converted)

## O=C1CCCN1Cc1n[nH]c(-c2ncc3cccnc3c2O)n1 [Compound 6, 1-((5-(8-Hydroxy-1,6-naphthyridin-7-yl)-1H-1,2,4-triazol-3-yl)methyl)pyrrolidin-2-one]
L. donovani amastigotes; supplement sheet
  IC50: > 50.1 µM
[1]
  Cli (mouse liver microsomal intrinsic clearance): <0.5 mL/min/g
  Cli (mouse, ml/min/g): <0.5 mL/min/g
THP-1 cells; [3]
  IC50: > 50.1 µM

## Cc1nnc(C(=O)NC(C)(C)c2nc(C(=O)NCc3ccc(F)cc3)c(O)c(=O)n2C)o1 [Compound 24, Raltegravir, reference compound]
L. donovani amastigotes
  IC50: > 50.1 µM
THP-1 cells; THP-1, read-out: THP1 pIC50 (converted)
  IC50: > 50.1 µM

## O=C(NCc1ccc(Cl)cc1)c1nc(NC2CCOCC2)c2cccnc2c1O [Compound 31, N-(4-Chlorobenzyl)-8-hydroxy-5-((tetrahydro-2H-pyran-4-yl)amino)-1,6-naphthyridine-7-carboxamide]
[2]
  solubility kinetic: >250 µM
L. donovani amastigotes
  Ld InMac (pEC50): 5.3
L. donovani amastigotes; supplement sheet
  LdInMac pIC50: 5.3
[1]
  Cli (mouse liver microsomal intrinsic clearance): 2.2 mL/min/g
  Cli (mouse, ml/min/g): 2.2 mL/min/g
Chrom Log D pH7.4
  ChromLogDpH7.4: 5.3
  ChromLogD: 5.3
THP-1 cells
  THP-1 (pEC50): <4.3
THP-1 cells; supplement sheet
  THP1 pIC50: <4.3

## COc1ccccc1-c1nc(-c2nc(C)n[nH]2)c(OC)c2ncccc12 [Compound 18]
L. donovani amastigotes; supplement sheet
  IC50: 2.51 µM
THP-1 cells; [3]
  IC50: > 50.1 µM

## O=C(NCc1ccc(F)cc1)c1nc(N2CCCCS2(=O)=O)c2cccnc2c1O [Compound 30, N-(4-Fluorobenzyl)-5-(1,1-dioxido-1,2-thiazinan-2-yl)-8-hydroxy-1,6-naphthyridine-7-carboxamide, reference compound]
[2]
  solubility kinetic: > 250 µM
L. donovani amastigotes; supplement sheet
  LdInMac pIC50: <4.3
[1]
  Cli (mouse liver microsomal intrinsic clearance): 2.0 mL/min/g
  Cli (mouse, ml/min/g): 2 mL/min/g
THP-1 cells
  THP-1 (pEC50): 4.5
THP-1 cells; supplement sheet
  THP1 pIC50: 4.5

## Cc1n[nH]c(-c2nc(-c3ccccc3)c3cccnc3c2O)n1 [Compound 14, 7-(3-Methyl-1H-1,2,4-triazol-5-yl)-5-phenyl-1,6-naphthyridin-8-ol]
[2]
  solubility kinetic: 160 µM (≈ 48.5 µg/mL)
L. donovani amastigotes
  Ld InMac (pEC50): 5.9
L. donovani amastigotes; supplement sheet
  LdInMac pIC50: 5.9
[1]
  Cli (mouse liver microsomal intrinsic clearance): 9.4 mL/min/g
  Cli (mouse, ml/min/g): 9.4 mL/min/g
THP-1 cells
  THP-1 (pEC50): <4.3
THP-1 cells; supplement sheet
  THP1 pIC50: <4.3

## 2-(8-Hydroxy-7-(3-methyl-1H-1,2,4-triazol-5-yl)-1,6-naphthyridin-5-yl)-1,2-thiazinane 1,1-dioxide [Compound 13]
[2]
  solubility kinetic: 250 µM
L. donovani amastigotes; supplement sheet
  LdInMac pIC50: <4.3
[1]
  Cli (mouse liver microsomal intrinsic clearance): 0.6 mL/min/g
  Cli (mouse, ml/min/g): 0.6 mL/min/g
Chrom Log D pH7.4
  ChromLogDpH7.4: 1.5
  ChromLogD: 1.5
THP-1 cells
  THP-1 (pEC50): <4.3
THP-1 cells; supplement sheet
  THP1 pIC50: <4.3

## O=C(NCc1ccc(Cl)cc1)c1ccc2cccnc2c1O [Compound 20]
L. donovani amastigotes; supplement sheet
  IC50: 15.8 µM
THP-1 cells; [3]
  IC50: 6.31 µM
THP-1 cells
  THP-1 (pEC50): toxic to the host THP-1 cells

## Cc1n[nH]c(-c2cc3ncccc3c(-c3ccccc3)n2)n1 [Compound 17]
L. donovani amastigotes; supplement sheet
  IC50: > 50.1 µM
THP-1 cells; [3]
  IC50: > 50.1 µM

## N-(Cyclopropylmethyl)-8-hydroxy-5-(2-methoxyphenyl)-1,6-naphthyridine-7-carboxamide [Compound 33]
[2]
  solubility kinetic: >250 µM
L. donovani amastigotes
  Ld InMac (pEC50): 5.7
L. donovani amastigotes; supplement sheet
  LdInMac pIC50: 5.7
[1]
  Cli (mouse liver microsomal intrinsic clearance): 8 mL/min/g
  Cli (mouse, ml/min/g): 8 mL/min/g
THP-1 cells
  THP-1 (pEC50): <4.3
THP-1 cells; supplement sheet
  THP1 pIC50: <4.3

## 7-(3-Methyl-1H-1,2,4-triazol-5-yl)-5-(2-(trifluoromethyl)phenyl)-1,6-naphthyridin-8-ol [Compound 15]
[2]
  solubility kinetic: >250 µM
L. donovani amastigotes
  Ld InMac (pEC50): 7.0
L. donovani amastigotes; supplement sheet
  LdInMac pIC50: 7
[1]
  Cli (mouse liver microsomal intrinsic clearance): 1.4 mL/min/g
  Cli (mouse, ml/min/g): 1.4 mL/min/g
Chrom Log D pH7.4
  ChromLogDpH7.4: 4.3
  ChromLogD: 4.3
THP-1 cells
  THP-1 (pEC50): <4.3
THP-1 cells; supplement sheet
  THP1 pIC50: <4.3

## COc1ccccc1-c1nc(-c2nnc(C)o2)c(O)c2ncccc12 [Compound 19, 5-(2-Methoxyphenyl)-7-(5-methyl-1,3,4-oxadiazol-2-yl)-1,6-naphthyridin-8-ol]
L. donovani amastigotes; supplement sheet
  IC50: > 50.1 µM
[1]
  Cli (mouse liver microsomal intrinsic clearance): <0.5 mL/min/g
  Cli (mouse, ml/min/g): <0.5 mL/min/g
THP-1 cells; [3]
  IC50: > 50.1 µM

## Oc1c(-c2nc(C(O)c3ccccc3)n[nH]2)ncc2cccnc12 (centres unmarked) [Compound 3, 7-(3-(Hydroxy(phenyl)methyl)-1H-1,2,4-triazol-5-yl)-1,6-naphthyridin-8-ol]
L. donovani amastigotes
  loss in potency compared to 1: ~10 fold
L. donovani amastigotes; supplement sheet
  IC50: 5.01 µM
THP-1 cells; [3]
  IC50: > 50.1 µM

## Cc1n[nH]c(-c2nc(N3CCCC3=O)c3cccnc3c2O)n1 [Compound 12, 1-(8-Hydroxy-7-(3-methyl-1H-1,2,4-triazol-5-yl)-1,6-naphthyridin-5-yl)pyrrolidin-2-one]
[2]
  solubility kinetic: 109 µM (≈ 33.8 µg/mL)
L. donovani amastigotes; supplement sheet
  LdInMac pIC50: <4.3
[1]
  Cli (mouse liver microsomal intrinsic clearance): <0.5 mL/min/g
  Cli (mouse, ml/min/g): <0.5 mL/min/g
THP-1 cells
  THP-1 (pEC50): <4.3
THP-1 cells; supplement sheet
  THP1 pIC50: <4.3

## N-(Cyclopropylmethyl)-8-hydroxy-1,6-naphthyridine-7-carboxamide [Compound 29]
L. donovani amastigotes
  Ld InMac (pEC50): 5.9
L. donovani amastigotes; supplement sheet
  LdInMac pIC50: 5.9
[1]
  Cli (mouse liver microsomal intrinsic clearance): 13 mL/min/g
  Cli (mouse, ml/min/g): 13 mL/min/g
Chrom Log D pH7.4
  ChromLogDpH7.4: 3.3
  ChromLogD: 3.3
THP-1 cells
  THP-1 (pEC50): <4.3
THP-1 cells; supplement sheet
  THP1 pIC50: <4.3

## Oc1c(-c2nc(CN3CCOCC3)n[nH]2)ncc2cccnc12 [Compound 5, 7-(3-(Morpholinomethyl)-1H-1,2,4-triazol-5-yl)-1,6-naphthyridin-8-ol]
L. donovani amastigotes
  EC50: 31.6 µM
L. donovani amastigotes; supplement sheet
  IC50: 31.6 µM
THP-1 cells; [3]
  IC50: > 50.1 µM

## Cc1n[nH]c(-c2nc(N3CCOCC3)c3cccnc3c2O)n1 [Compound 11, 7-(3-Methyl-1H-1,2,4-triazol-5-yl)-5-morpholino-1,6-naphthyridin-8-ol]
[2]
  solubility kinetic: >250 µM
L. donovani amastigotes; supplement sheet
  LdInMac pIC50: 5
[1]
  Cli (mouse liver microsomal intrinsic clearance): 3.1 mL/min/g
  Cli (mouse, ml/min/g): 3.1 mL/min/g
Chrom Log D pH7.4
  ChromLogDpH7.4: 1.8
  ChromLogD: 1.8
THP-1 cells
  THP-1 (pEC50): <4.3
THP-1 cells; supplement sheet
  THP1 pIC50: <4.3

## Cc1n[nH]c(-c2nc(NCc3ccc(Cl)cc3)c3cccnc3c2O)n1 [Compound 10, 5-((4-Chlorobenzyl)amino)-7-(3-methyl-1H-1,2,4-triazol-5-yl)-1,6-naphthyridin-8-ol]
[2]
  solubility kinetic: 219 µM (≈ 80.3 µg/mL)
L. donovani amastigotes; supplement sheet
  LdInMac pIC50: 5.8
[1]
  Cli (mouse liver microsomal intrinsic clearance): 3.4 mL/min/g
  Cli (mouse, ml/min/g): 3.4 mL/min/g
Chrom Log D pH7.4
  ChromLogDpH7.4: 4.4
  ChromLogD: 4.4
THP-1 cells
  THP-1 (pEC50): <4.3
THP-1 cells; supplement sheet
  THP1 pIC50: <4.3

## (R)-N-(1-(4-Fluorophenyl)ethyl)-1-methyl-4-oxo-1,4-dihydro-1,5-naphthyridine-3-carboxamide [Compound 22]
[2]
  solubility kinetic: >250 µM
L. donovani amastigotes; supplement sheet
  LdInMac pIC50: <4.3
[1]
  Cli (mouse liver microsomal intrinsic clearance): 0.7 mL/min/g
  Cli (mouse, ml/min/g): 0.7 mL/min/g
THP-1 cells
  THP-1 (pEC50): <4.3
THP-1 cells; supplement sheet
  THP1 pIC50: <4.3

## O=C(NCc1ccc(Cl)cc1)c1ncc2cccnc2c1O [Compound 7, N-(4-Chlorobenzyl)-8-hydroxy-1,6-naphthyridine-7-carboxamide]
L. donovani amastigotes
  EC50: 0.501 µM
L. donovani amastigotes; supplement sheet
  IC50: 0.501 µM
THP-1 cells; [3]
  IC50: > 50.1 µM

## COc1ccc(CNC(=O)c2nn(C)c3cccnc3c2=O)cc1 [Compound 23, N-(4-Methoxybenzyl)-1-methyl-4-oxo-1,4-dihydropyrido[3,2-c]pyridazine-3-carboxamide]
L. donovani amastigotes; supplement sheet
  IC50: > 50.1 µM
THP-1 cells; [3]
  IC50: > 50.1 µM

## CNc1nc(-c2nc(C)n[nH]2)c(O)c2ncccc12 [Compound 8, 7-(3-Methyl-1H-1,2,4-triazol-5-yl)-5-(methylamino)-1,6-naphthyridin-8-ol]
[2]
  solubility kinetic: >250 µM
L. donovani amastigotes; supplement sheet
  LdInMac pIC50: <4.3
[1]
  Cli (mouse liver microsomal intrinsic clearance): 3.1 mL/min/g
  Cli (mouse, ml/min/g): 3.1 mL/min/g
Chrom Log D pH7.4
  ChromLogDpH7.4: -0.2
  ChromLogD: -0.2
THP-1 cells
  THP-1 (pEC50): <4.3
THP-1 cells; supplement sheet
  THP1 pIC50: <4.3

## Oc1c(-c2nnc(Cc3ccc(F)cc3)[nH]2)ncc2cccnc12 [Compound 2]
L. donovani amastigotes
  loss in potency compared to 1: ~10 fold
L. donovani amastigotes; supplement sheet
  IC50: 2.51 µM
THP-1 cells; [3]
  IC50: 39.8 µM

## Oc1c(-c2nnc(Cc3ccc(Cl)cc3)[nH]2)ncc2cccnc12 [Compound 1]
L. donovani amastigotes
  EC50: 0.316 µM
L. donovani amastigotes; supplement sheet
  IC50: 0.316 µM
L. donovani amastigotes; parasite vs THP-1 pEC50
  selectivity over the human THP-1 cell line: ~100 fold
THP-1 cells; [3]
  IC50: 31.6 µM

## N-(4-Chlorobenzyl)-8-hydroxy-5-morpholino-1,6-naphthyridine-7-carboxamide [Compound 32]
[2]
  solubility kinetic: 219 µM
L. donovani amastigotes
  Ld InMac (pEC50): <4.3
L. donovani amastigotes; supplement sheet
  LdInMac pIC50: <4.3
[1]
  Cli (mouse liver microsomal intrinsic clearance): 24 mL/min/g
  Cli (mouse, ml/min/g): 24 mL/min/g
THP-1 cells
  THP-1 (pEC50): <4.3
THP-1 cells; supplement sheet
  THP1 pIC50: <4.3

## Cc1n[nH]c(-c2ncc3cccnc3c2O)n1 [Compound 4, 7-(3-Methyl-1H-1,2,4-triazol-5-yl)-1,6-naphthyridin-8-ol]
L. donovani amastigotes; supplement sheet
  IC50: > 50.1 µM
THP-1 cells; [3]
  IC50: > 50.1 µM

## COc1ccc(CNC(=O)c2ncc3cccnc3c2O)cc1 [Compound 27, 8-Hydroxy-N-(4-methoxybenzyl)-1,6-naphthyridine-7-carboxamide]
L. donovani amastigotes
  Ld InMac (pEC50): 6.3
  EC50: < 1 µM
L. donovani amastigotes; supplement sheet
  IC50: 0.501 µM
THP-1 cells; [3]
  IC50: > 50.1 µM

## O=C(NCc1ccc(Cl)cc1)c1ncc2ccccc2c1O [Compound 21]
L. donovani amastigotes; supplement sheet
  IC50: > 50.1 µM
THP-1 cells; [3]
  IC50: > 50.1 µM
